Several values for one entry are separate records, joined by “and”; a condition that tells them apart may be missing. Equal entries are not always repeated. No end group written: not given here.
Key:
HFD-fed mice [1] = experiment: Oral glucose tolerance test, insulin levels and insulin resistance indices in HFD-fed mice; format: in vivo, C57BL/6 mice; conditions: for area under the OGTT curve (AUC): oral glucose 1 g/kg after 12 h fast, Figure 3B
From the text: Four-week-old male C57BL/6 mice were purchased from the Nara Bio Animal Center (NARA Biotech, Seoul, Korea) All experiments were approved by the Institutional Animal Care and Use Committee of Konkuk University (14 July 2019). All possible efforts were made to minimize the suffering and the animal count utilized in this study (KU19102). The mice were randomly divided into the following two groups after 1 week of acclimatization: n = 8 in the control group, fed a normal diet (Control, fat content of 10% kcal), and n = 30, fed a high-fat diet (HFD, fat content of 60% kcal). Mice were registered daily for food intake, and their body weights were assessed twice a week. […] HFD + EIA10, 100 mg/kg/d; and HFD + orlistat, 60 mg/kg /d for 5 weeks. As a positive control, Orlistat was used. After 12 weeks, the mice were subjected to fasting overnight and sacrificed (Figure 2A). Blood samples were harvested for further analysis. Sections of epididymal adipose and liver tissues were fixed in 10% formaldehyde for histological analyses and frozen in liquid nitrogen. An oral glucose tolerance test (OGTT) to determine the clearance of a standardized glucose load was performed after 5 weeks of oral administration. Plasma glucose was determined under postabsorptive conditions with blood collected at time ‒30 and 0 and then after oral administration of 1 g/kg of glucose at 30, 60, 90, and 120 min. Using a Blood Glucose Testing System (891 Hogye-Dong Dongan-gu, Anyang, Gyeonggi-do, Korea), blood samples were measured from the tail veins. A mouse ultrasensitive insulin ELISA package (ALPCO, Salem, NH, USA) was quantified for serum insulin. The hepatic insulin resistance index (hepatic IRI) was estimated by using the validated method of Matsuda and DeFronzo [43]. Insulin resistance was assessed using the homeostasis model assessment of insulin resistance (HOMA-IR). HOMA is a mathematically derived model of glucose–insulin feedback.

HFD-fed mice [2] = experiment: Body weight, energy intake, organ and adipose tissue weights, DXA body fat in high-fat diet (HFD)-fed mice; format: in vivo, C57BL/6 mice; conditions: for Total fat weight: DXA; for Total fat weight / food intake between different drug groups (appetite): EIA10 100 mg/kg/d or orlistat 60 mg/kg/d oral; for food intake between different drug groups (appetite): HFD-fed mice; for Total energy intake: over 10 weeks
From the text: (§1) Four-week-old male C57BL/6 mice were purchased from the Nara Bio Animal Center (NARA Biotech, Seoul, Korea) All experiments were approved by the Institutional Animal Care and Use Committee of Konkuk University (14 July 2019). All possible efforts were made to minimize the suffering and the animal count utilized in this study (KU19102). The mice were randomly divided into the following two groups after 1 week of acclimatization: n = 8 in the control group, fed a normal diet (Control, fat content of 10% kcal), and n = 30, fed a high-fat diet (HFD, fat content of 60% kcal). Mice were registered daily for food intake, and their body weights were assessed twice a week. After 5 weeks, mice with a body weight 20% higher than that of the control group were picked and divided randomly into three groups (n = 8/group): HFD + EIA10, 100 mg/kg/d; and HFD + orlistat, 60 mg/kg /d for 5 weeks. As a positive control, Orlistat was used. After 12 weeks, the mice were subjected to fasting overnight and sacrificed (Figure 2A). Blood samples were harvested for further analysis. Sections of epididymal adipose and liver tissues were fixed in 10% formaldehyde for histological analyses and frozen in liquid nitrogen.
Dual-energy X-ray absorptiometry (DXA) measurements were used to compare the body fat. DXA measurements were performed after 4 weeks of administration using a total-body scanner (InAlyzer dual X-ray absorptiometry, Medikors, Gyeonggi, Korea). Data were obtained once with low energy and once with high energy.

HFD-fed mice [3] = experiment: Serum biochemical parameters in HFD-fed mice; format: in vivo, C57BL/6 mice; conditions: EIA10 100 mg/kg/d or orlistat 60 mg/kg/d oral for 5 weeks, mean ± SEM, n = 8; for ALT (alanine aminotransferase) / AST (aspartate aminotransferase) / HDL (high-density lipoprotein cholesterol) / LDL/VLDL / TC (total cholesterol) / TG (triglyceride): serum
From the text: as §1
(§2) Through heart puncture, blood samples were collected and serum was isolated through centrifugation (3000 rpm for 20 min) and processed before further study at −80 °C. An automated analyzer (Abaxis VETSVAN VS2 Chemistry Analyzer, Union City, CA, USA) assessed serum levels of blood urea nitrogen, alanine aminotransferase (ALT), alkaline phosphatase, aspartate aminotransferase (AST), total protein, serum albumin, and electrolytes. Using a fast blood lipid analyzer (OSANG Healthcare Lipid Pro, Anyang, Korea), total cholesterol (TC), low-density lipoprotein cholesterol (LDL), high-density lipoprotein cholesterol (HDL), and TG were calculated. Adiponectin was analyzed by Western blotting, and leptin was quantified using a leptin enzyme-linked immunosorbent assay (ELISA) kit (MERCK, DHB, Germany).

3T3-L1 cells = experiment: Lipid accumulation in differentiated 3T3-L1 cells by Oil Red O staining; format: cell-based; conditions: synthesized peptides, untreated cells as control
Procedure: The 3T3-L1 cells were obtained from the Korean Cell Line Bank (Seoul, Korea). They were cultured and maintained in Dulbecco’s modified Eagle medium (DMEM) at 37 °C in a humidified atmosphere of 5% CO2. Additionally, 2-day post-confluent preadipocytes (designated day 0) were cultured in a 2-day differentiation medium composed of DMEM, 0.5 mM IBMX, 1 μM dexamethasone, and 5 μg/mL insulin to induce differentiation. The cells were then cultured in a DMEM containing 5 μg/mL insulin for another 2 days. The medium was replaced every 2 days until the cells had accumulated intracellular lipid droplets. Cells were seeded in 6-well plates, and adipocyte differentiation was induced for 8 days. On day 8, the cells were fixed with 10% buffered formalin and stained with Oil Red O solution for 60 min at room temperature. Images of lipid droplets in the 3T3-L1 adipocytes were captured using a Leica DMi1 microscope (Leica, Germany).

[4] = system: adiponectin, leptin, SREBP-1c, PPARγ, C/EBP-α, FAS, ACC, FABP4; experiment: mRNA (real-time PCR) and protein (Western blot, ELISA) levels of adipogenic/lipogenic factors in HFD-fed mice; format: in vivo, C57BL/6 mice
From the text: as §1, §2
Total cellular RNA was isolated from the epididymal adipose tissue of each group of mice using TRIzol. The first strand of complementary DNA (cDNA) was synthesized using Superscript II reverse transcriptase (Invitrogen). The conditions for RT-PCR were similar to those previously described. Quantitative real-time PCR was carried out using a Thermal Cycler Dice TP850 (Takarabio Inc., Shiga, Japan) according to the manufacturer’s protocol.
Frozen epididymal adipose tissues from mice were homogenized in liquid nitrogen. Tissue lyses were lysed in a radioimmunoprecipitation lysis buffer containing 1% protein inhibitor cocktail. They were transferred to a nitrocellulose blotting membrane and blocked with 5% skim milk, incubated overnight with primary antibodies purchased from Cell Signaling Technology, and then incubated with secondary antibodies for 2 h. Equal protein loading was ascertained using Ponceau S staining of the blotted membranes. With the help of an improved chemiluminescence detection reagent, the antibody-specific proteins were visualized and quantified using ImageJ tools.

HFD-fed mice [5] = experiment: Histological analysis of liver and epididymal adipose tissue (H&E, Oil Red O, IHC) of HFD-fed mice; format: in vivo, C57BL/6 mice
From the text: as §1
Liver and epididymal adipose tissues were dissected and embedded in paraffin for histological examination. Tissue blocks were cut into 4-μm thick sections that were stained with hematoxylin and eosin. Frozen liver sections were cut into 8-μm thick sections that were stained with Oil Red O. Adipocyte sizes were assessed using a microscope under 200× magnification to measure tissue size.

[6] = male C57BL/6 mice on HFD, mean ± SEM, n = 8
[7] = male C57BL/6 mice on HFD, EIA10 100 mg/kg/d or orlistat 60 mg/kg/d oral for 5 weeks, mean ± SEM, n = 8

CCCCCCCCCCC[C@@H](C[C@@H]1OC(=O)[C@H]1CCCCCC)OC(=O)[C@H](CC(C)C)NC=O [Orlistat, reference compound]
area under the OGTT curve (AUC) (HFD-fed mice [1]; vs HFD group, p < 0.05): significantly lower | Total fat weight (HFD-fed mice [2]; [6]): 13.71 ± 1.09 g | food intake between different drug groups (appetite) (HFD-fed mice [2]): No significant difference | Body weight gain (HFD-fed mice [2]; [7]): 12.56 ± 0.45 g | Epididymal adipose tissue weight (HFD-fed mice [2]; [7]): 1.90 ± 0.48 g | Final body weight (HFD-fed mice [2]; [7]): 36.11 ± 3.92 g | Initial body weight (HFD-fed mice [2]; [7]): 23.55 ± 0.07 g | Liver weight (HFD-fed mice [2]; [7]): 1.14 ± 0.12 g | Subcutaneous adipose tissue weight (HFD-fed mice [2]; [7]): 3.11 ± 0.53 g | Total energy intake (HFD-fed mice [2]; [7]): 1031.35 kcal and 1031.35 ± 26.32 kcal | Glucose (HFD-fed mice [3]): 160.78 ± 13.62 mg/dL | ALT (alanine aminotransferase) (HFD-fed mice [3]): 44.75 ± 8.38 U/L | AST (aspartate aminotransferase) (HFD-fed mice [3]): 113.88 ± 16.17 U/L | HDL (high-density lipoprotein cholesterol) (HFD-fed mice [3]): 72.05 ± 4.38 mg/dL | LDL/VLDL (HFD-fed mice [3]): 41.21 ± 2.59 mg/dL | TC (total cholesterol) (HFD-fed mice [3]): 113.26 ± 3.40 mg/dL | TG (triglyceride) (HFD-fed mice [3]): 115.52 ± 4.66 mg/dL

ALNQAWAFLK [Peptide 16]
Lipid Accumulation (% of Control) (3T3-L1 cells): 57.47 % of Control

AVQGLLK [Peptide 5]
Lipid Accumulation (% of Control) (3T3-L1 cells): 48.40 % of Control

Ala-Glu-Arg-Val-Gly-Ala-Gly-Ala-Pro-Val-Try [Peptide 17]
Lipid Accumulation (% of Control) (3T3-L1 cells): 35.06 % of Control

EIAQDFK [Peptide 3]
Lipid Accumulation (% of Control) (3T3-L1 cells): 52.20 % of Control

EIAQDFKTDL [EIA10]
Lipid Accumulation (% of Control) (3T3-L1 cells): 30.22 % of Control | insulin resistance (hepatic IRI, HOMA-IR) (HFD-fed mice [1]; five weeks of oral EIA10 in obese mice, Figure 3E,F): alleviated IR in the obese mice to some extent | area under the OGTT curve (AUC) (HFD-fed mice [1]; vs HFD group, p < 0.05): significantly lower | insulin secretion level after oral glucose (HFD-fed mice [1]; oral glucose 1 g/kg, vs HFD group, p < 0.05, Figure 3C,D): decreased | Total fat weight (HFD-fed mice [2]; [6]): 12.71 ± 0.78 g | food intake between different drug groups (appetite) (HFD-fed mice [2]): No significant difference | Epididymal adipose tissue weight (HFD-fed mice [2]; [7]): 2.06 ± 0.34 g | Final body weight (HFD-fed mice [2]; [7]): 37.38 ± 2.55 g | Initial body weight (HFD-fed mice [2]; [7]): 23.07 ± 0.33 g | Interscapular adipose tissue weight (HFD-fed mice [2]; [7]): 0.22 ± 0.06 g | Liver weight (HFD-fed mice [2]; [7]): 1.22 ± 0.25 g | Subcutaneous adipose tissue weight (HFD-fed mice [2]; [7]): 3.36 ± 0.58 g | Total energy intake (HFD-fed mice [2]; [7]): 1026.01 kcal and 1026.01 ± 2.60 kcal | Glucose (HFD-fed mice [3]): 137 ± 11.47 mg/dL | ALT (alanine aminotransferase) (HFD-fed mice [3]): 58.75 ± 13.16 U/L | AST (aspartate aminotransferase) (HFD-fed mice [3]): 99.20 ± 20.00 U/L | HDL (high-density lipoprotein cholesterol) (HFD-fed mice [3]): 74.49 ± 2.57 mg/dL | LDL/VLDL (HFD-fed mice [3]): 32.97 ± 3.42 mg/dL | TC (total cholesterol) (HFD-fed mice [3]): 107.46 ± 5.15 mg/dL | TG (triglyceride) (HFD-fed mice [3]): 140.25 ± 5.23 mg/dL | plasma leptin concentration ([4]; ELISA, HFD-fed mice, Figure 4B): reducing | mRNA and protein levels of SREBP-1c in the adipose tissue ([4]; HFD-fed mice treated with EIA10 vs HFD group, Figure 4C,D): lower | protein levels of adiponectin in mouse epididymal adipose tissue ([4]; Western blot, HFD-fed mice, Figure 4A): improved | mRNA and protein levels of PPARγ ([4]; epididymal adipose tissue, HFD group mice, Figure 4C,D): decreased | protein levels of PPARγ, C/EBP-α, SREBP-1c, and FABP4 ([4]; epididymal adipose tissue, Western blot, Figure 4D): significantly decreased | FAS and ACC gene expression ([4]; epididymal adipose tissue, Western blot, Figure 5A,B): inhibitory effect | expression of PPARγ, C/EBP-α, FAS, and SREBP-1c ([4]; epididymal adipose tissue, real-time PCR, Figure 4C): downregulated | lipid droplets in the liver (Oil Red O staining of frozen sections) (HFD-fed mice [5]; EIA10 100 mg/kg/d oral 5 weeks, vs HFD group, Figure 2C,E): significantly reduced number of lipid droplets | size of the adipose cells (epididymal fat, H&E) (HFD-fed mice [5]; EIA10 100 mg/kg/d oral 5 weeks, vs HFD group, Figure 2D): lower than that of the HFD group | FAS in liver tissue by immunohistochemistry (IHC) (HFD-fed mice [5]; Figure 5C): inhibited

HLQLAIR [Peptide 4]
Lipid Accumulation (% of Control) (3T3-L1 cells): 63.26 % of Control

HLQLAIRNDEELNK [Peptide 22]
Lipid Accumulation (% of Control) (3T3-L1 cells): 83.11 % of Control

IAQGGVLP [Peptide 6]
Lipid Accumulation (% of Control) (3T3-L1 cells): 38.01 % of Control

KLPFQR [Peptide 1]
Lipid Accumulation (% of Control) (3T3-L1 cells): 57.85 % of Control

NDEELNKLL [Peptide 7]
Lipid Accumulation (% of Control) (3T3-L1 cells): 39.44 % of Control

NKLLSGVTIA [Peptide 14]
Lipid Accumulation (% of Control) (3T3-L1 cells): 77.76 % of Control

QNIIPASTGAAK [Peptide 21]
Lipid Accumulation (% of Control) (3T3-L1 cells): 44.40 % of Control

RFQSSAVMA [Peptide 12]
Lipid Accumulation (% of Control) (3T3-L1 cells): 57.47 % of Control

RIVDFHMLESR [Peptide 18]
Lipid Accumulation (% of Control) (3T3-L1 cells): 41.94 % of Control

SGVTIAQGGVLP [Peptide 19]
Lipid Accumulation (% of Control) (3T3-L1 cells): 68.00 % of Control

STELLIR [Peptide 2]
Lipid Accumulation (% of Control) (3T3-L1 cells): 59.04 % of Control

TLSDYNIQK [Peptide 13]
Lipid Accumulation (% of Control) (3T3-L1 cells): 68.00 % of Control

VTIAQGGVLFNIQA [Peptide 23]
Lipid Accumulation (% of Control) (3T3-L1 cells): 74.36 % of Control
